From patent US20200377545A1, “NOVEL ANTI-TUMOR COMPOUND AND APPLICATION THEREOF IN PREPARING ANTI-TUMOR DRUGS” (HANGZHOU XINGAO BIOTECHNOLOGY CO., LTD, priority 2018, published 2020)

Key:
Format in all cases: in vivo
[1] = system: mouse Lewis lung cancer cell line LL/2; assay: Subcutaneous transplanted tumor of mouse Lewis lung cancer cell line LL-2 in mice; conditions: C57 mouse, LL-2 tumor, once every two days for 20 days, cGAMP 5 mg/kg subcutaneous, oxaliplatin 2 mg/kg oral, platinum complexes 6 mg/kg oral; for Mean tumor weight (g): n = 10, mean ± SD; for Mean tumor inhibition rate (%): vs negative control group
Method: (§1) Mice are orally administrated, and [cis-Pt(NH3)2(cGAMP)] and the tetravalent platinum complex cis-[Pt(cGAMP)(NH3)2(Cl)(OH)] are both set to be 6 mg/kg in one dose group.
(§2) Positive control: cGAMP, 5 mg/kg in dose (subcutaneous) oxaliplatin, 2 mg/kg in dose (oral)
(§3) Administration routes: control group: cGAMP, 5 mg/kg in dose (subcutaneous)
(§4) Oxaliplatin, 2 mg/kg in dose (oral);
(§5) Immune activator platinum complex, 6 mg/kg in dose (oral)
(§6) Administration volume: 100 μl/animal; number of times of administration: continuous administration for 20 days, once every two days.
(§7) Mouse colorectal cancer cell line CT26, mouse Lewis lung cancer cell line LL/2, human ovarian cancer cell line SK-OV-3, and human melanoma cell line A375, which all purchased from the Cell Bank of the Chinese Academy of Sciences.
(§8) The 5 groups are administered once every two days for 20 consecutive days. 20 days later, the mice are killed and the tumors are weighed. Tumor inhibition rate=[1−mean tumor weight of experimental group/mean tumor weight of group A)]×100%.
(§9) Data is expressed with x±s, and processed with SPSS10.0 software. The significance of the difference between tumor weights of all groups is compared by a one-way ANOVA test. The significance level a=0.05.

[2] = system: human melanoma cell line A375; assay: Mouse subcutaneous transplanted tumor of human melanoma cell line A375; conditions: once every two days for 20 days, cGAMP 5 mg/kg subcutaneous, oxaliplatin 2 mg/kg oral, platinum complexes 6 mg/kg oral; for Mean tumor weight (g): n = 10, mean ± SD; for Mean tumor inhibition rate (%): vs negative control group
Method: (§10) BALB/c ordinary mice, male, 18-20 g in weight, 6-8 weeks old, SPF grade, purchased from Shanghai SLAC Laboratory Animal Co., Ltd.[Laboratory Animal Quality Certificate Number: SCXK (Shanghai) 2007-0005].
as §1, §2, §3, §4, §5, §6, §7, §8, §9

[3] = system: mouse colorectal cancer cell line CT26; assay: Subcutaneous transplanted tumor of mouse colorectal cancer cell CT26 in mice; conditions: for Mean tumor weight (g) / Mean tumor inhibition rate (%): BalB/C mouse, CT26 tumor, once every two days for 20 days, cGAMP 5 mg/kg subcutaneous, oxaliplatin 2 mg/kg oral, platinum complexes 6 mg/kg oral; for Mean tumor weight (g): n = 10, mean ± SD; for Mean tumor inhibition rate (%): vs negative control group; for Inhibition of the growth of subcutaneous transplanted tumors (result in words): summary statement for all four tumor models (Tables 1-4), 20 days after administration, tumor weights significantly lower than negative control (P<0.05, P<0.01)
Method: as §10, §1, §2, §3, §4, §5, §6, §7, §8, §9

[4] = system: human ovarian cancer cell line SK-OV-3; assay: Mouse subcutaneous transplanted tumor of human ovarian cancer cell line SK-OV-3; conditions: SK-OV-3 tumor, once every two days for 20 days, cGAMP 5 mg/kg subcutaneous, oxaliplatin 2 mg/kg oral, platinum complexes 6 mg/kg oral; for Mean tumor weight (g): n = 10, mean ± SD; for Mean tumor inhibition rate (%): vs negative control group
Method: as §10, §1, §2, §3, §4, §5, §6, §7, §8, §9

| Molecule | Mean tumor weight (g) [1] | Mean tumor inhibition rate (%) [1] | Mean tumor weight (g) [2] | Mean tumor inhibition rate (%) [2] | Mean tumor weight (g) [3] | Mean tumor inhibition rate (%) [3] | Inhibition of the growth of subcutaneous transplanted tumors (result in words) [3] | Mean tumor weight (g) [4] | Mean tumor inhibition rate (%) [4] |
| --- | --- | --- | --- | --- | --- | --- | --- | --- | --- |
| cis-[Pt(cGAMP)(NH3)2] [cGAMP-cisplatin] | 0.758 ± 0.226 (g) | 70.4% | 0.786 ± 0.218 (g) | 70.1% | 0.648 ± 0.216 (g) | 71.3% | obviously inhibit the growth of tumors | 0.789 ± 0.218 (g) | 70.2% |
| cis-[Pt(cGAMP)(NH3)2(Cl)(OH)] [cGAMP-tetravalent cisplatin] | 0.784 ± 0.232 (g) | 69.4% | 0.794 ± 0.224 (g) | 69.8% | 0.689 ± 0.224 (g) | 69.5% | obviously inhibit the growth of tumors | 0.813 ± 0.226 (g) | 69.3% |
| O=C1[O][Pt]2([NH][C@@H]3CCCC[C@H]3[NH]2)[O]C1=O [Oxaliplatin, oxaliplatin] | 0.963 ± 0.223 (g) | 62.4% | 0.989 ± 0.215 (g) | 62.4% | 0.963 ± 0.223 (g) | 57.3% | obviously inhibit the growth of tumors | 0.989 ± 0.215 (g) | 62.6% |
| Nc1nc2c(ncn2[C@@H]2O[C@@H]3COP(=O)(O)O[C@H]4[C@@H](O)[C@H](n5cnc6c(N)ncnc65)O[C@@H]4COP(=O)(O)O[C@@H]2[C@@H]3O)c(=O)[nH]1 [cGAMP, Cyclic [G(2′,5′)pA(3′,5′)p]] | 0.980 ± 0.214 (g) | 56.6% | 0.969 ± 0.216 (g) | 63.0% | 0.840 ± 0.218 (g) | 62.8% | obviously inhibit the growth of tumors | 0.997 ± 0.212 (g) | 62.3% |
